US5130300A, “Method for enhancing growth of mammary parenchyma” (Monsanto Company, priority 1987, dated 1992)

Key:
[1] = tested on: Quarter-Udders in Pregnant Beef Cattle; assay: Intramammary infusion of prostaglandin E1 or E2, quarter-udder weights and DNA (Examples 25-28); type: in vivo, cross-bred beef cows; conditions: for DNA, % Increase, (A-B)/B / DNA, Mean Increase (A-B) / Dry Weight, % Increase, (A-B)/B / Dry Weight, Mean Increase (A-B) / Wet Weight, % Increase, (A-B)/B / Wet Weight, Mean Increase (A-B) / Dry Fat-Free Weight, % Increase, (A-B)/B / Dry Fat-Free Weight, Mean Increase (A-B): B = excipient only
Procedure: 24 pregnant, non-lactating, cross-bred beef cows in their last 45-105 days of gestation were housed in a free-stall facility, fed a ration of alfalfa hay and pelleted concentrate, and administered 5 ml of an excepient (MCT-Oil, a Mead Johnson Corp. medium chain triglyceride which is a lipid fraction of coconut oil consisting primarily of triglycerides of C8 and C10 fatty acids as follows: C8 -67%; C10 -23%; <C8 -6%; >C10 -4%) into each quarter-udder by intramammary infusion through the streak cannal on days 1, 3, 5, 7 and 9 of this study. The 48 front and rear udder halves were randomly divided into 4 groups, with one quarter of each udder half treated and its laterally opposite quarter-udder used as a control. In the treatment infusions, the excipient contained Prostaglandin (PG) E1 or E2 from Sigma Chemical Co., St. Louis, Mo. (Catalog Nos. 86F-0406 and -0404). The amounts of PG in each infusion were: Group 1-87.5 micrograms of E2; Group 2-875 micrograms of E2; Group 3-87.5 micrograms of E1; Group 4-875 micrograms of E1. Animals were prepared and infused as in Examples 23-24; the effects were determined as in Examples 1-2. Results for Groups 1-4 are in Tables 15-18, respectively.

[2] = tested on: Quarter-Udders in Pregnant Beef Cows; assay: Intramammary infusion of hEGF or mEGF, quarter-udder weights and DNA (Examples 1-2); type: in vivo, cross-bred beef cows; conditions: 25 micrograms per infusion, days 1,3,5,7,9, Freund's emulsion
Procedure: 12 pregnant, non-lactating, cross-bred beef cows within their last 40-80 days of gestation were housed in a free-stall facility, fed a ration of alfalfa hay and pelleted concentrate, and administered 10 ml of an excipient (Freund's Incomplete Adjuvant emulsified with an equal volume of 0.9% sterile saline) into each quarter-udder by intramammary infusion through the streak canal on days 1, 3, 5, 7 and 9 of this study. Infusions were carried out using a 3.2 centimeter long, approximately 12 gauge, blunt-tipped plastic teat infusion cannula obtained from Jorgensen Laboratories, Loveland, Colo. Because front and rear udder halves are not of equal size, treatment vs. control comparisons were made between laterally opposite quarters, i.e., front right vs. front left and rear right vs. rear left. Treatments were randomly assigned to right or left udder-halves, with the contralateral half serving as its control. […] (the other 6 animals).
Prior to treatment, each animal was teatdipped for 3 consecutive days and each teat was pre-cleaned with 70% ethanol in water on the day of treatment. On day 14 the cows were sacrificed and their mammary glands excised. Each udder (milked out if necessary) was skinned, divided along the median suspensory ligament and then into front right, front left, rear right and rear left udder quarters. Each quarter-udder was ground, a representative 200 gm sample was homogenized with 4 times its volume of water, and the total homogenate volume of each was measured.
To determine dry weight of each quarter-udder, three 10 ml aliquots of a 1:5 diluted homogenate were placed in pre-weighed pans, dried overnight at 60° and then dried and weighed to a consistent value.
To determine dry fat-free tissue weight of each quarter-udder, three 5 ml aliquots of the undiluted homogenate were extracted by the method of Anderson, 41 J. Anim. Sci. 118 (1975) except that samples were placed in pre-weighed 25×150 mm glass centrifuge tubes and extracted overnight with 10 ml ethanol:ether (3:1), then centrifuged (5 min at 500 rpm) and the supernatant aspirated; an additional 10 ml aliquot of ethanol:ether was added for a second extraction; and the sample was dried under nitrogen until a consistent value was obtained.
DNA in each quarter-udder was determined by the method of Burton, 12B Methods in Enzymol. 163-66 (1968) using an assay solution of 15% trichloroacetic acid (TCA) in 2N HCl. In these determinations, aliquots of gland homogenate were diluted 1:5 with water and rehomogenized. Using triplicate 0.25 ml or 0.5 ml aliquots of these homogenates, each aliquot was mixed with 2 ml of the assay solution. After 30 min, the samples were centrifuged for 10 min at 3000 rpm and the resulting pellets were washed with 2 ml of a 10% solution of TCA in distilled water. After recentrifugation, the resulting pellets were disrupted in 2 ml of 0.5N perchloric acid and heated for 30 min at 70° to extract DNA. Samples were centrifuged and 1 ml of each resulting supernatant was placed in a 12×75 mm tube. After addition of 2 ml of a solution of 1.5 g diphenylamine and 1.5 ml H2 SO4 in 100 ml glacial acetic acid (and 0.1 ml of 1.6% aqueous acetaldehyde per 20 ml reagent just prior to use), the samples were vortexed and incubated overnight at 27°. Calf thymus DNA was the standard.

[3] = total of 0.4375 milligrams (87.5 micrograms per infusion) in MCT-Oil
[4] = total of 0.4375 milligrams in MCT-Oil
[5] = total of 4.375 milligrams (875 micrograms per infusion) in MCT-Oil
[6] = total of 4.375 milligrams in MCT-Oil
[7] = B = opposite quarter, excipient only

CCCCC[C@H](O)/C=C/[C@H]1[C@H](O)CC(=O)[C@@H]1CCCCCCC(=O)O [Prostaglandin E1, [11α,13E,15S]-11,15-Dihydroxy-9-oxoprost-13-en-1-oic acid]
DNA, Treatment Mean [1, 3]: 2881 mg | Dry Fat-Free Weight, Treatment Mean [1, 3]: 180.9 g | Dry Weight, Treatment Mean [1, 3]: 259.3 g | Wet Weight, Treatment Mean [1, 3]: 972.5 g | DNA, % Increase, (A-B)/B [1, 4]: 26% | DNA, Mean Increase (A-B) [1, 4]: 597 mg | Dry Weight, % Increase, (A-B)/B [1, 4]: 23.0% | Dry Weight, Mean Increase (A-B) [1, 4]: 48.7 g | Wet Weight, % Increase, (A-B)/B [1, 4]: 25.0% | Wet Weight, Mean Increase (A-B) [1, 4]: 194.5 g | DNA, Treatment Mean [1, 5]: 4218 mg | Dry Fat-Free Weight, Treatment Mean [1, 5]: 247.7 g | Dry Weight, Treatment Mean [1, 5]: 379.6 g | Wet Weight, Treatment Mean [1, 5]: 1435.5 g | DNA, % Increase, (A-B)/B [1, 6]: 51.1% | DNA, Mean Increase (A-B) [1, 6]: 1426 mg | Dry Fat-Free Weight, % Increase, (A-B)/B [1, 6]: 31.0% | Dry Fat-Free Weight, Mean Increase (A-B) [1, 6]: 58.7 g | Dry Weight, % Increase, (A-B)/B [1, 6]: 41.5% | Dry Weight, Mean Increase (A-B) [1, 6]: 111.4 g | Wet Weight, % Increase, (A-B)/B [1, 6]: 51.2% | Wet Weight, Mean Increase (A-B) [1, 6]: 486.2 g

CCCCC[C@H](O)/C=C/[C@H]1[C@H](O)CC(=O)[C@@H]1C/C=C\CCCC(=O)O [Prostaglandin E2, [5Z,11α,13E,15S]-11,15-Dihydroxy-9-oxoprosta-5,13-dien-1-oic acid]
DNA, Treatment Mean [1, 3]: 5203 mg | Dry Fat-Free Weight, Treatment Mean [1, 3]: 351.8 g | Dry Weight, Treatment Mean [1, 3]: 525.5 g | Wet Weight, Treatment Mean [1, 3]: 1966.9 g | DNA, % Increase, (A-B)/B [1, 4]: 10.1% | DNA, Mean Increase (A-B) [1, 4]: 479 mg | Dry Fat-Free Weight, % Increase, (A-B)/B [1, 4]: 18.1% | Dry Fat-Free Weight, Mean Increase (A-B) [1, 4]: 54.0 g | Dry Weight, % Increase, (A-B)/B [1, 4]: 8.3% | Dry Weight, Mean Increase (A-B) [1, 4]: 40.6 g | Wet Weight, % Increase, (A-B)/B [1, 4]: 13.3% | Wet Weight, Mean Increase (A-B) [1, 4]: 231.4 g | DNA, Treatment Mean [1, 5]: 3397 mg | Dry Fat-Free Weight, Treatment Mean [1, 5]: 194.5 g | Dry Weight, Treatment Mean [1, 5]: 312.7 g | Wet Weight, Treatment Mean [1, 5]: 1030.8 g | DNA, % Increase, (A-B)/B [1, 6]: 44.6% | DNA, Mean Increase (A-B) [1, 6]: 1049 mg | Dry Fat-Free Weight, % Increase, (A-B)/B [1, 6]: 34.8% | Dry Fat-Free Weight, Mean Increase (A-B) [1, 6]: 50.2 g | Dry Weight, % Increase, (A-B)/B [1, 6]: 42.8% | Dry Weight, Mean Increase (A-B) [1, 6]: 93.7 g | Wet Weight, % Increase, (A-B)/B [1, 6]: 38.9% | Wet Weight, Mean Increase (A-B) [1, 6]: 288.8 g

mEGF: mouse EGF, culture-grade, from mouse submaxillary glands, Collaborative Research Corp. Catalog No. 40001 (NSYPGCPSSYDGYCLNGGVCMHIESLDSYTCNCVIGYSGDRCQTRDLRWWELR; not fully specified; Epidermal growth factor; UniProt P01132 977-1029, looked up)
DNA, % Increase, (A-B)/B [2, 7]: 13.8% | DNA, Mean Increase (A-B) [2, 7]: 110.2 mg | Dry Fat-Free Weight, % Increase, (A-B)/B [2, 7]: 7.9% | Dry Fat-Free Weight, Mean Increase (A-B) [2, 7]: 5.0 g | Dry Weight, % Increase, (A-B)/B [2, 7]: 1.6% | Dry Weight, Mean Increase (A-B) [2, 7]: 2.3 g | Wet Weight, % Increase, (A-B)/B [2, 7]: 4.4% | Wet Weight, Mean Increase (A-B) [2, 7]: 17.6 g | DNA, Treatment Mean ([2]; day 14): 905.1 mg | Dry Fat-Free Weight, Treatment Mean ([2]; day 14): 69.6 g | Dry Weight, Treatment Mean ([2]; day 14): 150.2 g | Wet Weight, Treatment Mean ([2]; day 14): 419.6 g | DNA, Avg % Increase/Animal ([2]; vs excipient-only quarter): 12.0% | Dry Fat-Free Weight, Avg % Increase/Animal ([2]; vs excipient-only quarter): 5.2% | Dry Weight, Avg % Increase/Animal ([2]; vs excipient-only quarter): 2.1% | Wet Weight, Avg % Increase/Animal ([2]; vs excipient-only quarter): 1.8%
